Some results are limits rather than exact numbers.

The test system of this test is P. falciparum K1 (strain resistant to chloroquine and pyrimethamine), erythrocytic stages. Briefly: Plasmodium falciparum in vitro assay, [3H] hypoxanthine incorporation. Particulars: Plasmodium falciparum, K1, P. falciparum strain K1; [3H] hypoxanthine incorporation; read-out: IC50 (nM) on K1. It is filed as cell-based. An outline of the steps:
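K1 strain parasites grown in human red cells, 2.5% haematocrit, 0.3% parasitaemia, 37 °C, 4% CO2/3% O2; compounds in seven serial doubling dilutions.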
With `COCCN(C)C(=O)[C@H](Cc1ccccc1)N(Cc1ccc(-c2cccnc2)cc1)C(=O)C=Cc1sc(C)nc1C` [Example 132, (S)-3-(2,4-Dimethyl-thiazol-5-yl)-N-{1-[(2-methoxy-ethyl)-methyl-carbamoyl]-2-phenyl-ethyl}-N-(4-pyridin-3-yl-benzyl)-acrylamide], the IC50 was determined as 28 nM.
Consider `COCCN(C)C(=O)[C@H](Cc1ccccc1)N(Cc1ccc(-c2cncnc2)cc1)C(=O)C=Cc1ccc(C(F)(F)F)cn1` [Example 130, (S)-N-{1-[(2-Methoxy-ethyl)-methyl-carbamoyl]-2-phenyl-ethyl}-N-(4-pyrimidin-5-yl-benzyl)-3-(5-trifluoromethyl-pyridin-2-yl)-acrylamide], for which the IC50 is less than 8 nM.
Under `Cc1c(C=CC(=O)N(Cc2ccc(-c3ccncc3)cc2)[C@@H](Cc2ccccc2)C(=O)N2CCC(N(C)C)CC2)cnn1C` [Example 31, (S)-N-[1-Benzyl-2-(4-dimethylamino-piperidin-1-yl)-2-oxo-ethyl]-3-(1,5-dimethyl-1H-pyrazol-4-yl)-N-(4-pyridin-4-yl-benzyl)-acrylamide] stands 54 nM.
Under `COCCN(C)C(=O)[C@H](Cc1ccccc1)N(Cc1ccc(-c2cccnc2)cc1)C(=O)C=Cc1cnc(C)n1C` [Example 131, (S)-3-(2,3-Dimethyl-3H-imidazol-4-yl)-N-{1-[(2-methoxy-ethyl)-methyl-carbamoyl]-2-phenyl-ethyl}-N-(4-pyridin-3-yl-benzyl)-acrylamide] stands 282 nM; under `COCCN(C)C(=O)C(Cc1ccn(C)n1)N(Cc1ccc(-c2ccccn2)cc1)C(=O)C=Cc1ccc(C(F)(F)F)cc1` (racemic) [Example 165], 76 nM.
Take `O=C([C@H](Cc1ccccc1)N(Cc1ccc(-c2ccccn2)cc1)C(=O)C=Cc1ccc(C(F)(F)F)cc1)N1CCc2cccnc2C1` [Example 149, (S)-N-[1-Benzyl-2-(5,8-dihydro-6H-[1,7]naphthyridin-7-yl)-2-oxo-ethyl]-N-(4-pyridin-2-yl-benzyl)-3-(4-trifluoromethyl-phenyl)-acrylamide]: the IC50 stood at 26 nM.
As to `COCCN(C)C(=O)[C@H](Cc1ccccc1)N(Cc1ccc(N2CCOCC2)nc1)C(=O)C=Cc1ccc(C(F)(F)F)cc1` [Example 157, (S)-N-{1-[(2-Methoxy-ethyl)-methyl-carbamoyl]-2-phenyl-ethyl}-N-(6-morpholin-4-yl-pyridin-3-ylmethyl)-3-(4-trifluoromethyl-phenyl)-acrylamide], the IC50 came to 10 nM.
Under `COc1ccc(C=CC(=O)N(Cc2ccc(N3CCN(C(C)=O)CC3)cc2)[C@@H](Cc2ccccc2)C(=O)N2CCC(N(C)C)CC2)cn1` [Example 34, (S)-N-[4-(4-Acetyl-piperazin-1-yl)-benzyl]-N-[1-benzyl-2-(4-dimethylamino-piperidin-1-yl)-2-oxo-ethyl]-3-(6-methoxy-pyridin-3-yl)-acrylamide] stands 433 nM.
Under `COCCN(C)C(=O)[C@H](Cc1ccccc1)N(Cc1ccc(N2CCOCC2)nc1)C(=O)C=Cc1ccc(C)cc1` [Example 158, (S)-N-{1-[(2-Methoxy-ethyl)-methyl-carbamoyl]-2-phenyl-ethyl}-N-(6-morpholin-4-yl-pyridin-3-ylmethyl)-3-p-tolyl-acrylamide] stands 24 nM; under `COCCN(C)C(=O)[C@H](Cc1ccccc1)N(Cc1ccc(-c2cncnc2)cc1)C(=O)C=Cc1cnc(C)n1C` [Example 120, (S)-3-(2,3-Dimethyl-3H-imidazol-4-yl)-N-{1-[(2-methoxy-ethyl)-methyl-carbamoyl]-2-phenyl-ethyl}-N-(4-pyrimidin-5-yl-benzyl)-acrylamide], 285 nM.
Under `COCCN(C)C(=O)[C@H](Cc1ccccc1)N(Cc1ccc(N2CCN(C(C)=O)CC2)cc1)C(=O)C=Cc1cc(C)nn1C` [Example 104, (S)-N-[4-(4-Acetyl-piperazin-1-yl)-benzyl]-3-(2,5-dimethyl-2H-pyrazol-3-yl)-N-{1-[(2-methoxy-ethyl)-methyl-carbamoyl]-2-phenyl-ethyl}-acrylamide] stands 45 nM; under `COc1ccc(C=CC(=O)N(Cc2ccc(-c3cncnc3)cc2)[C@@H](Cc2ccccc2)C(=O)N2CCC(N(C)C)CC2)cn1` [Example 41, (S)-N-[1-Benzyl-2-(4-dimethylamino-piperidin-1-yl)-2-oxo-ethyl]-3-(6-methoxy-pyridin-3-yl)-N-(4-pyrimidin-5-yl-benzyl)-acrylamide], 169 nM; under `COc1ccc(CN(C)C(=O)[C@H](Cc2ccccc2)N(Cc2ccc(N3CCOCC3)cc2)C(=O)C=Cc2ccc(C(F)(F)F)nc2)cc1` [Example 177, (S)-N-{1-[(4-Methoxy-benzyl)-methyl-carbamoyl]-2-phenyl-ethyl}-N-(4-morpholin-4-yl-benzyl)-3-(6-trifluoromethyl-pyridin-3-yl)-acrylamide], 84 nM.
Regarding `CC(=O)N1CCN(c2ccc(CN(C(=O)C=Cc3ccc(C(F)(F)F)cc3)[C@@H](Cc3ccccc3)C(=O)N(C)CCOCC3CC3)cc2)CC1` [Example 207, (S)-N-[4-(4-Acetyl-piperazin-1-yl)-benzyl]-N-{1-[(2-cyclopropylmethoxy-ethyl)-methyl-carbamoyl]-2-phenyl-ethyl}-3-(4-trifluoromethyl-phenyl)-acrylamide], the IC50 is 40 nM.
Under `COCCN(C)C(=O)[C@H](Cc1ccccc1)N(Cc1ccc(-c2cncnc2)cc1)C(=O)C=Cc1sc(C)nc1C` [Example 121, (S)-3-(2,4-Dimethyl-thiazol-5-yl)-N-{1-[(2-methoxy-ethyl)-methyl-carbamoyl]-2-phenyl-ethyl}-N-(4-pyrimidin-5-yl-benzyl)-acrylamide] stands 28 nM; under `COCCN(C)C(=O)[C@H](Cc1ccccc1)N(Cc1ccc(-c2ccncc2)cc1)C(=O)C=Cc1csc(C)n1` [Example 94, (S)-N-{1-[(2-Methoxy-ethyl)-methyl-carbamoyl]-2-phenyl-ethyl}-3-(2-methyl-thiazol-4-yl)-N-(4-pyridin-4-yl-benzyl)-acrylamide], 15 nM.
With `COCCN(C)C(=O)[C@H](Cc1ccccc1)N(Cc1ccc(N2CCN(C(C)=O)CC2)cc1)C(=O)C=Cc1ccc(OC)nn1` [Example 111, (S)-N-[4-(4-Acetyl-piperazin-1-yl)-benzyl]-N-{1-[(2-methoxy-ethyl)-methyl-carbamoyl]-2-phenyl-ethyl}-3-(6-methoxy-pyridazin-3-yl)-acrylamide], the IC50 came to 214 nM.
On to `COc1ccc(C=CC(=O)N(Cc2ccc(N3CCOCC3)cc2)[C@@H](Cc2ccccc2)C(=O)N2CCC(N(C)C)CC2)cn1` [Example 5, (S)-N-[1-Benzyl-2-(4-dimethylamino-piperidin-1-yl)-2-oxo-ethyl]-3-(6-methoxy-pyridin-3-yl)-N-(4-morpholin-4-yl-benzyl)-acrylamide], for which the IC50 was 319 nM.
Under `COCCN(C)C(=O)[C@H](Cc1ccccc1)N(Cc1ccc(-c2cncnc2)cc1)C(=O)C=Cc1ccc(Cl)nc1` [Example 128, (S)-3-(6-Chloro-pyridin-3-yl)-N-{1-[(2-methoxy-ethyl)-methyl-carbamoyl]-2-phenyl-ethyl}-N-(4-pyrimidin-5-yl-benzyl)-acrylamide] stands 94 nM; under `COCCN(C)C(=O)[C@H](Cc1ccccc1)N(Cc1ccc(-c2ccncc2)cc1)C(=O)C=Cc1ccc(Cl)nc1` [Example 99, (S)-3-(6-Chloro-pyridin-3-yl)-N-{1-[(2-methoxy-ethyl)-methyl-carbamoyl]-2-phenyl-ethyl}-N-(4-pyridin-4-yl-benzyl)-acrylamide], 17 nM.

Source of the values: patent publication US20110224210A1, “NOVEL BIS-AMIDES AS ANTI-MALARIAL AGENTS” (priority 2008, published 2011).
